Bounds are passed on as bounds.

Experimental findings from patent publication US20260226048A1, “MULTI-CYCLIC IRAK AND FLT3 INHIBITING COMPOUNDS AND USES THEREOF” (CHILDREN'S HOSPITAL MEDICAL CENTER, priority 2023, published 2026) are described below.

One experiment concerns the target T1, FLT3 (Homo sapiens, UniProt P36888).
T1 sequence (P36888 27-993): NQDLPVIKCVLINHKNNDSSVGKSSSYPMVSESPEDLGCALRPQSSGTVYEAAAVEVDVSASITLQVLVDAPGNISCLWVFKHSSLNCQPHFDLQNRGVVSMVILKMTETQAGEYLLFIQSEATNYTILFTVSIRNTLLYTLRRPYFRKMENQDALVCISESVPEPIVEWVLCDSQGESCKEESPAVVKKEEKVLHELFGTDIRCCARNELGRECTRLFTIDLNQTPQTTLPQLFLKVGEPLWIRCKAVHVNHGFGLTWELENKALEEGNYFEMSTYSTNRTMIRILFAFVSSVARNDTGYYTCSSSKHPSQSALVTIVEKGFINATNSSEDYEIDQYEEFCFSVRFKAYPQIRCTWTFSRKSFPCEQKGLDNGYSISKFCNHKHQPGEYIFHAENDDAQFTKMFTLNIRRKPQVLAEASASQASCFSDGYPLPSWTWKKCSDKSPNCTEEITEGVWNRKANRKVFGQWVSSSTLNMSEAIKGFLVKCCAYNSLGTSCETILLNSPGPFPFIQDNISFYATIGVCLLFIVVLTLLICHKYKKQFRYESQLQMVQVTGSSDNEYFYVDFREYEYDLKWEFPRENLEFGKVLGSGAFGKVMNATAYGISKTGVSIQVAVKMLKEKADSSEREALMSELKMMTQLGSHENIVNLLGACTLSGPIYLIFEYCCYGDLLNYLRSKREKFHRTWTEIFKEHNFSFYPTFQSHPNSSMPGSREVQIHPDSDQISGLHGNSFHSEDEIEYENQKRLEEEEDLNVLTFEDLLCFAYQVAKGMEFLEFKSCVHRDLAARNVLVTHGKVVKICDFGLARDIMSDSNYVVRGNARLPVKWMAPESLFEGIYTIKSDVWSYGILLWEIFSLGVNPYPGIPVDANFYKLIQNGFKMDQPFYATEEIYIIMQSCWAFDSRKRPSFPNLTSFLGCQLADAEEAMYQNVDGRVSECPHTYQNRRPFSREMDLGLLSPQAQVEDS
Kind of experiment: RBC HotSpot Kinase Assay, FLT3. It is filed as biochemical. Details: purchased Reaction Biology (RBC HotSpot). The following applies: isolated kinase enzyme, 33P-ATP, P81 filter-binding. An excerpt:
(§1) This assay uses the isolated kinase enzyme. […] Unlike kinase binding assays that measure competition for ATP, the HotSpot Kinase Assay is a functional assay that measures catalytic activity; as such it measures relative functional potency regardless of the mechanism of enzyme inhibition. This assay uses the form of the various enzymes that are easiest to express, which may not necessarily be the form of the enzyme that exist in the cell. (Sometimes the carboxy terminus has been truncated to aid in expression, or, if it is a receptor kinase, the enzyme itself is isolated from the other parts of the receptor that are involved in regulating kinase activity.)
(§2) The reagent used was as follows: Base Reaction buffer; 20 mM Hepes (pH 7.5), 10 mM MgCl2, 1 mM EGTA, 0.01% Brij35, 0.02 mg/ml BSA, 0.1 mM Na3VO4, 2 mM DTT, 1% DMSO. Required cofactors were added individually to each kinase reaction.

The target of a further experiment is T2, IRAK4 (Homo sapiens, UniProt Q9NWZ3).
T2 sequence (Q9NWZ3 1-460): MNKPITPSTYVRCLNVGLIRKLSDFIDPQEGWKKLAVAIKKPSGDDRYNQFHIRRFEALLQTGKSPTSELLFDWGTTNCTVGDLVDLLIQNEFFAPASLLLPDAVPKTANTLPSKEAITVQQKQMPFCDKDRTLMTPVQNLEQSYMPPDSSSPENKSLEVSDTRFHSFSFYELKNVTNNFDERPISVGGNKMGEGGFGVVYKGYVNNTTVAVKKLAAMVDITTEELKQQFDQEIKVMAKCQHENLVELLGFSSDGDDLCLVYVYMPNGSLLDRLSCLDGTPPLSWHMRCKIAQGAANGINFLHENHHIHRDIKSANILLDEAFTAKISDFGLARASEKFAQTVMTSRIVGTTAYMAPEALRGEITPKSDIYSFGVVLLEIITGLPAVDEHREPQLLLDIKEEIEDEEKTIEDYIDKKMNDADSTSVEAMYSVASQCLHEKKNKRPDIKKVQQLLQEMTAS
The experiment in a line: RBC HotSpot Kinase Assay, IRAK4. It is filed as biochemical. Details: purchased Reaction Biology (RBC HotSpot). The following applies: isolated kinase enzyme, 33P-ATP, P81 filter-binding.
From the text: as §1, with “enzyme. This assay is very useful for determining competition of the inhibitor for ATP and/or substrates and for measuring the kinetics of enzyme inhibition.” for “enzyme.”
as §2
The reaction procedure was as follows: • 1) Substrates were prepared in freshly prepared Reaction Buffer. • 2) Any required cofactors were delivered to the substrate solution above. • 3) Kinase was delivered into the substrate solution and gently mixed. • 4) Compounds were delivered in 1000A DM into the kinase reaction mixture by Acoustic technology (Echo550; nanoliter range), followed by incubation for 20 min at room temp. • 5) 33P-ATP was delivered into the reaction mixture to initiate the reaction. • 6) The mixture was incubated for 2 hours at room temperature. • 7) Kinase activity was detected by P81 filter-binding method.

The target in the next experiment is T3, IRAK1 (Homo sapiens, UniProt P51617).
T3 construct: purchased Reaction Biology (RBC HotSpot)
T3 sequence (P51617 whole entry): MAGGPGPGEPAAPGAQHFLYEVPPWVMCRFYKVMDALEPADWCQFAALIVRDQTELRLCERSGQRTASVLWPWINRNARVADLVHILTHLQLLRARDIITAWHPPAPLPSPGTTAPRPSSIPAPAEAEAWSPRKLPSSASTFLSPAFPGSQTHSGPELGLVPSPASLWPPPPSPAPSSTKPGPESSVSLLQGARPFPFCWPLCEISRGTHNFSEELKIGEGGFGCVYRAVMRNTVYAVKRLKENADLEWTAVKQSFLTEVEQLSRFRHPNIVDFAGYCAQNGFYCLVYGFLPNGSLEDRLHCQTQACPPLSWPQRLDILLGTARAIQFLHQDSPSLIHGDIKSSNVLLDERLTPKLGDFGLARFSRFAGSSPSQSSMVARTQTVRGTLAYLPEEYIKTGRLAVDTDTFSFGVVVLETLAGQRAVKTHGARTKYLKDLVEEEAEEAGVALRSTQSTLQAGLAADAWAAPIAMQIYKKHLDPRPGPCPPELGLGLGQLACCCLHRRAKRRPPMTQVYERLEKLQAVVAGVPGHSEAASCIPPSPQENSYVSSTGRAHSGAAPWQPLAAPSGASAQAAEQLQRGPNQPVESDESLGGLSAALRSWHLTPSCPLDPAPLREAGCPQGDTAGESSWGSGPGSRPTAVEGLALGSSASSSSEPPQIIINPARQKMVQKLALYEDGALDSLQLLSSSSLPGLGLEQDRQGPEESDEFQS
Kind of experiment: RBC HotSpot Kinase Assay, IRAK1. It is filed as biochemical. The settings on record: isolated kinase enzyme, 33P-ATP, P81 filter-binding.
From the text: as §1, §2

The subject of another experiment is MOLM14 D835Y cells. The experiment in a line: MOLM14 D835Y cell viability assay (Cell Titer Glo). It is filed as cell-based. The settings on record: Homo sapiens, MOLM-14, 48 h, cell viability, Cell Titer Glo, 48 hours; read-out: MOLM14 D835Y IC50. The method, then:
Both cell lines have activated FLT3 receptors, each of which carry additional resistance mutations in the kinase domain (D835Y and F691L, respectively).
For viability/cytotoxicity assessments, cells were seeded into 1536-well white polystyrene tissue culture-treated Greiner plates using a Multidrop Combi dispenser (ThermoFisher), in final volume 5 μL of growth media per well, at a density of 1000 cells per well. […] Plates were incubated for 48 hours at standard incubator conditions covered by a stainless steel gasketed lid to prevent evaporation. 48 hours post compound addition, 3 μL of Cell Titer Glo (Promega) were added to each well and plates were incubated at room temperature for 15 minutes with the stainless-steel lid in place. Luminescence readings were taken using a Viewlux imager (PerkinElmer) with a 2 second exposure time per plate.

`FC(F)COc1cc2ncc(-c3ccnc(N[C@H]4CNC[C@@H]4F)n3)n2nc1C1CC1` [Compound 5a, 4-(6-cyclopropyl-7-(2,2-difluoroethoxy)imidazo[1,2-b]pyridazin-3-yl)-N-((3S,4S)-4-fluoropyrrolidin-3-yl)pyrimidin-2-amine]: the IC50 – broadly, the point on the concentration scale where inhibition reaches its midpoint – at FLT3 is less than 0.5 nM; on IRAK4, 0.9 nM; at IRAK1, 29 nM; with MOLM14 D835Y cells, 29 nM.
For `FC(F)COc1cc2ncc(-c3ccnc(N[C@@H]4CCCNC4)n3)n2nc1C1CC1` [Compound 6a, (R)-4-(6-cyclopropyl-7-(2,2-difluoroethoxy)imidazo[1,2-b]pyridazin-3-yl)-N-(piperidin-3-yl)pyrimidin-2-amine], the IC50 on FLT3 is less than 0.5 nM; at IRAK4, 3 nM; on IRAK1, 133 nM; in the experiment on MOLM14 D835Y cells, 9 nM.
As for `FC(F)COc1cc2ncc(-c3cncc(N[C@H]4CNC[C@@H]4F)n3)n2nc1C1CC1` [Compound 8a, 6-(6-cyclopropyl-7-(2,2-difluoroethoxy)imidazo[1,2-b]pyridazin-3-yl)-N-((3S,4S)-4-fluoropyrrolidin-3-yl)pyrazin-2-amine], the IC50 is less than 0.5 nM at FLT3, 2 nM on IRAK4, 34 nM at IRAK1 and 91 nM in the experiment with MOLM14 D835Y cells.
As to `FC(F)COc1cc2ncc(-c3cncc(N[C@@H]4CCCNC4)n3)n2nc1C1CC1` [Compound 9a, (R)-6-(6-cyclopropyl-7-(2,2-difluoroethoxy)imidazo[1,2-b]pyridazin-3-yl)-N-(piperidin-3-yl)pyrazin-2-amine], the IC50 at FLT3 was less than 0.5 nM; at IRAK4 it was 11 nM; on IRAK1 it was 199 nM; in the experiment with MOLM14 D835Y cells, 41 nM.
The like results for `F[C@H]1CNC[C@@H]1Nc1nccc(-c2cnc3cc(OC4CC4)c(C4CC4)nn23)n1` [Compound 10a, 4-(7-cyclopropoxy-6-cyclopropylimidazo[1,2-b]pyridazin-3-yl)-N-((3S,4S)-4-fluoropyrrolidin-3-yl)pyrimidin-2-amine] were, in that order, less than 0.5 nM, 3 nM, 26 nM and 91 nM.
In the same order, the values of `COc1cc2ncc(-c3ccnc(N[C@H]4CNC[C@@H]4F)n3)n2nc1N1CC(F)(F)C1` [Compound 16a, 4-(6-(3,3-difluoroazetidin-1-yl)-7-methoxyimidazo[1,2-b]pyridazin-3-yl)-N-((3S,4S)-4-fluoropyrrolidin-3-yl)pyrimidin-2-amine] are less than 0.5 nM, 8 nM, 245 nM and 182 nM.
The like results for `COc1cc2ncc(-c3ccnc(N[C@@H]4CCCNC4)n3)n2nc1N1CC(F)(F)C1` [Compound 17a, (R)-4-(6-(3,3-difluoroazetidin-1-yl)-7-methoxyimidazo[1,2-b]pyridazin-3-yl)-N-(piperidin-3-yl)pyrimidin-2-amine] were, in that order, 4 nM, 215 nM, 1420 nM and 182 nM.
For `COc1cc2ncc(-c3ccnc(N[C@H]4CNCC[C@@H]4F)n3)n2nc1N1CC(F)(F)C1` [Compound 18a, 4-(6-(3,3-difluoroazetidin-1-yl)-7-methoxyimidazo[1,2-b]pyridazin-3-yl)-N-((3S,4S)-4-fluoropiperidin-3-yl)pyrimidin-2-amine], the IC50 is less than 0.5 nM on FLT3, 15 nM on IRAK4, 226 nM on IRAK1 and 51 nM in the experiment on MOLM14 D835Y cells.
As to `COc1cc2ncc(-c3ccnc(N[C@H]4CNC[C@@H]4F)n3)n2nc1C1CC(F)(F)C1` [Compound 20a, 4-(6-(3,3-difluorocyclobutyl)-7-methoxyimidazo[1,2-b]pyridazin-3-yl)-N-((3S,4S)-4-fluoropyrrolidin-3-yl)pyrimidin-2-amine], the IC50 was 0.7 nM at FLT3, 12 nM at IRAK4, 170 nM at IRAK1 and 182 nM with MOLM14 D835Y cells.
In the same order, the values of `COc1cc2ncc(-c3ccnc(N[C@@H]4CCCNC4)n3)n2nc1C1CC(F)(F)C1` [Compound 21a, (R)-4-(6-(3,3-difluorocyclobutyl)-7-methoxyimidazo[1,2-b]pyridazin-3-yl)-N-(piperidin-3-yl)pyrimidin-2-amine] are less than 0.5 nM, 81 nM, 236 nM and 102 nM.
As to `COc1cc2ncc(-c3ccnc(N[C@H]4CNCC[C@@H]4F)n3)n2nc1C(C)(C)O` [Compound 40a, 2-(3-(2-(((3S,4S)-4-fluoropiperidin-3-yl)amino)pyrimidin-4-yl)-7-methoxyimidazo[1,2-b]pyridazin-6-yl)propan-2-ol], the IC50 on FLT3 came out at 3 nM; at IRAK4, 76 nM; at IRAK1 it was 1130 nM; in the experiment with MOLM14 D835Y cells it was 115 nM.
For `COc1cc2ncc(-c3ccnc(N[C@H]4CNC[C@@H]4F)n3)n2nc1C(C)(C)O` [Compound 41a, 2-(3-(2-(((3S,4S)-4-fluoropyrrolidin-3-yl)amino)pyrimidin-4-yl)-7-methoxyimidazo[1,2-b]pyridazin-6-yl)propan-2-ol], the IC50 is 1 nM at FLT3, 36 nM at IRAK4, 1590 nM at IRAK1 and 289 nM in the experiment on MOLM14 D835Y cells.
The like results for `COc1cc2ncc(-c3ccnc(N[C@@H]4CCCNC4)n3)n2nc1C(C)(C)O` [Compound 42a, (R)-2-(7-methoxy-3-(2-(piperidin-3-ylamino)pyrimidin-4-yl)imidazo[1,2-b]pyridazin-6-yl)propan-2-ol] were, in that order, 10 nM, 496 nM, 3250 nM and 363 nM.
